{
  "source": "paper PMC10611578",
  "about": "“Aβ1-6A2V(D) peptide, effective on Aβ aggregation, inhibits tau misfolding and protects the brain after traumatic brain injury” (Molecular Psychiatry, 2023)",
  "system": "tau (P301L mouse brain homogenate)",
  "assay": "Western blot of total tau level in P301L brain lysate",
  "format": "biochemical, human tau with P301L mutation, JNPL3 mice",
  "conditions": "50 µM, 2 h at 25 °C, 30 µg protein/100 µL, PBS pH 7.4, DAKO/actin band; mean ± SD, N = 3, p < 0.05",
  "text": "Male JNPL3 mice expressing 0N4R human tau with the P301L mutation (P301L) were obtained from Taconic Biosciences (New York, USA) (Tau Model 2508). Controls were non-transgenic (Non-tg) male mice with the same mixed C57BL/6, DBA/2, SW genetic background as P301L mice. Triple transgenic mice harboring human PS1(M146 V), APP(SW), and MAPT(P301L) transgenes, referred to as 3xTg-AD, were kindly provided by Dr. Oddo [34]. Male and female C57BL/6 J mice, referred to as wild type (WT), were purchased from Envigo (Italy).\nFig. 2 Effect of Aβ1-6A2V-TAT(D) on the toxicity caused in C. elegans by misfolded tau in P301L and TBI brain homogenates. A Brains from P301L mice were homogenized in 10 mM PBS, pH 7.4, and given to worms alone or in the presence of Aβ1-6A2V-TAT(D). B Worms were administered with brain homogenate (30 µg protein/100 worms/100 µL) in the absence or presence of Aβ1-6A2V-TAT(D) (0-200 µM). […] E Representative western blotting showing the total level of tau and tau quantification expressed as the mean volume of the DAKO band immunoreactivity/actin band. […] The reaction was then stopped, and samples were analyzed by western blot. […]\nLysates from brain homogenates of P301L mice (30 µg protein/100 µL) incubated for 2 h at 25°C with 50 µM Aβ1-6A2V-TAT(D), 50 µM Aβ1-6A2V(D), 50 µM TAT or 10 mM PBS, pH 7.4, were analyzed by immunoblotting using 10% SDS-PAGE gel and Western blotting analysis. […]",
  "note": "Square brackets hold non-standard residues; d marks the D form. Peptide text beside a SMILES is read from it.",
  "data": [
    {"smiles": "CC(C)[C@@H](NC(=O)[C@H](N)CC(=O)O)C(=O)N[C@H](CCC(=O)O)C(=O)N[C@H](Cc1ccccc1)C(=O)N[C@H](CCCNC(=N)N)C(=O)N[C@H](Cc1c[nH]cn1)C(=O)NCC(=O)NCC(=O)NCC(=O)NCC(=O)NCC(=O)N[C@H](CCCNC(=N)N)C(=O)N[C@H](CCCCN)C(=O)N[C@H](CCCCN)C(=O)N[C@H](CCCNC(=N)N)C(=O)N[C@H](CCCNC(=N)N)C(=O)N[C@H](CCC(N)=O)C(=O)N[C@H](CCCNC(=N)N)C(=O)N[C@H](CCCNC(=N)N)C(=O)N[C@H](CCCNC(=N)N)C(=O)O", "note": "[Aβ1-6A2V-TAT(D)] (H-[dD][dV][dE][dF][dR][dH]GGGGG[dR][dK][dK][dR][dR][dQ][dR][dR][dR]-OH; N-terminus assumed)", "values": [
      {"measurement": "Total tau protein level in P301L brain homogenate", "result": "significantly reduced the tau protein level"}
    ]}
  ]
}
